Laboratory results as given in patent publication US20010031751A1, “Pharmaceuticals” (SmithKline Beecham p.l.c., priority 1997, published 2001).

Legend:
[1] = test system: DMPP-evoked contractions of the guinea-pig colon; test: Selectivity test: cholinergically-mediated contractions of guinea-pig colon evoked by the nicotinic receptor agonist DMPP; conditions: selectivity of action
Method: To test for selectivity of action, compounds are tested for their ability to antagonise cholinergically-mediated contractions of the guinea-pig colon, evoked by the nicotinic receptor agonist. DMPP (1,1-dimethyl-4-phenyl-piperazinium iodide). For these experiments, tissues and equipment are set up as for the above, 5HT4 receptor experiments. After sensitization, non-cumulative dose response curves are constructed to DMPP. Test compounds are incubated with the tissues as above, and a second dose response curve to DMPP created. Results are given as mean pKB± SEM values for each antagonists.

[2] = target: T1, 5-HT4 receptor (Cavia porcellus, UniProt O70528); test: 5-HT4 receptor antagonist activity: 5-HT-evoked contractions of guinea-pig distal colon longitudinal muscle-myenteric plexus (LMMP) preparations; conditions: mean ± SEM, n=7, antagonism of 5-HT dose response curve, 45 minutes incubation
T1 construct: Longitudinal muscle-myenteric plexus (LMMP) preparations, 2-3cm long, are obtained from the distal colon region; from tissue; host or cells: guinea-pig distal colon longitudinal muscle-myenteric plexus
T1 sequence (O70528 whole entry): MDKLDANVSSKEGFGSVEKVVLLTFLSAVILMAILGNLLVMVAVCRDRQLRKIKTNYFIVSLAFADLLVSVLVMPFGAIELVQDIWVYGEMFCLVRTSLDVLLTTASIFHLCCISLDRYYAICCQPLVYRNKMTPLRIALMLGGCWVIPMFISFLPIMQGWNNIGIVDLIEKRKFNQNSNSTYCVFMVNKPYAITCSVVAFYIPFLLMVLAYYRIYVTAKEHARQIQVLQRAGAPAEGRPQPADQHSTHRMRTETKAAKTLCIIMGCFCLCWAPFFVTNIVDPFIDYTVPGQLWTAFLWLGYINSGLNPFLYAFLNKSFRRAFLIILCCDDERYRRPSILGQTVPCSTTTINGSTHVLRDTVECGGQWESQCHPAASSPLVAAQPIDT
Method: 5-HT4 RECEPTOR ANTAGONIST ACTIVITY
Male Dunkin Hartley guinea-pigs, weighing 200-300 g are used. Longitudinal muscle-myenteric plexus (LMMP) preparations, 2-3cm long, are obtained from the distal colon region. These are suspended under a 0.5 g load in isolated tissue baths containing Krebs Henseleit solution (NaCl 118 mM, KCl 4.7mM KH2PO4 1.2mM MgSO4 7H2O 1.2mM, Glucose 11.1mM, NaHCO3 25mM, CaCl2 6H2O 2.5mM) bubbled with 5% CO2 in O2, maintained at 37° C. and containing 1uM Granisetron and 0.1uM Methiothepin to block 5HT3 and 5HT1-like receptors respectively. 100uM Pargyline is also added to the tissues at the start of the experiment. Tissues are left for 15 minutes to equilibrate and then exposed to 5-HT at 0.1uM every 15 minutes until a uniform response is achieved. Following a half hour period for tissues to stabilise, non-cumulative dose response curves to 5-HT are constructed in all tissues. When base-lines have returned to normal, test compounds are added in the reservoirs of the tissue set-ups and washed in to the tissues. Tissues are incubated with the antagonists for 45 minutes after which a second non-cumulative dose response curve to 5-HT is constructed.
To test for selectivity of action, compounds are tested for their ability to antagonise cholinergically-mediated contractions of the guinea-pig colon, evoked by the nicotinic receptor agonist. […]

With `CCCCN1CCC(CNC(=O)c2c3n(c4ccccc24)C(O)CCO3)CC1` (racemic) [compound of formula (I), (±)-N-[(1-butyl-4-piperidinyl)methyl]-3,4-dihydro-4-hydroxy-2H-[1,3]oxazino[3,2-a]indole-10-carboxamide] the “effect on DMPP-evoked contractions” value [1] was “did not significantly affect DMPP-evoked contractions” and the Kb [2] was 3.39 nM.
